Laboratory results reported in patent publication US20120145955A1, “COMPOSITION OF HCFO-1233zd AND POLYOL BLENDS FOR USE IN POLYURETHANE FOAM” (Arkema Inc., priority 2009, published 2012).
Where two headings read alike, the source gives them in different places.

Legend:
[1] = AMES testing (genotoxicity); assay type: cell-based; conditions: trans isomer of HCFO-1233zd compared with the cis isomer
[2] = Solubility experiments: vapor pressure of blowing agent in polyol in a pressure vessel; assay type: physicochemical
Experimental: The vapor pressure of a foam blowing agent in polyurethane materials was evaluated in an experimental apparatus consisting of a pressure vessel with magnetic stirring, a pressure transducer and a temperature transducer. The temperature inside the vessel was controlled within 0.1° C. and the pressure controlled to within 0.1%.
Into the pressure vessel (volume about 100 ml), 50 g of polyol was loaded. The vessel was then placed under vacuum to remove air. The change of pressure in the metal cylinder was monitored to ensure that there were no leaks. The blowing agent was introduced into the vessel by the use of a specially designed gas syringe. The amount of blowing agent loaded was verified by measuring the weight of the syringe before and after introduction. The temperature of the vessel was maintained at 50° C. (above the boiling point of the blowing agents being tested) and the speed of the shaker was maintained at 300 rpm. The vapor pressure of the blowing agent was recorded as a function of the time. Sufficient time was allowed for the system to reach equilibrium. After reaching equilibrium, the amount of blowing agent dissolved in the polyol was calculated as the difference between the added blowing agent […] and the blowing agent present in the gas phase of the vessel.
Then another small amount of blowing agent was added in the vessel. The procedure was repeated several times until the pressure in the vessel was equal to the liquid-gas equilibrium vapor pressure of the blowing agent at this temperature (maximum attainable pressure at temperatures below the critical temperature of the blowing agent).

[3] = known to the people skilled in the art; cited from earlier work

Structure (SMILES): FC(F)(F)/C=C/Cl [E-HCFO-1233zd]
- genotoxicity in AMES testing [1]: significantly lower genotoxicity
- area between the polyether polyol and polyester polyol curves (range of solubilities) ([2]; compared with HCFC141b and HFC245fa, 50° C.): significantly larger
- solubility relative to current blowing agents ([2]; polyether polyol and polyester polyol, 50° C.): solubility comparable to current blowing agents
- solubility curves (vapor pressure versus part of blowing agent per 100 part of polyol by weight) ([2]; polyether polyol and polyester polyol, 50° C., FIG. 1): between those for HFC245fa and HCFC141b

Structure (SMILES): FC(F)CC(F)(F)F [HFC245fa]
- solubility in polyols [3]: relatively less soluble

Structure (SMILES): FC(F)(F)/C=C/Cl [HCFO-1233zd, trifluoro-monochloropropenes]
- solubility in polyols ([2]; different ratios of polyether polyols and polyester polyols, benchmarked against HCFC141b and HFC245fa): falls in between HFC245fa and HCFC141b
